Measurements reported in the NIST ThermoML archive (doi:10.1021/je101035p).
± gives the expanded uncertainty stated by the source.

Key:
[1] = refractive index (Na D-line) (dimensionless); conditions: 101.33 kPa, Liquid, Standard Abbe refractometry
[2] = Liquid; for Normal boiling temperature: Distillation

Row | refractive index ([1]; 293.2 K) | Normal boiling temperature [2] [°C] | refractive index ([1]; 294 K) | mass density ([2]; 293.2 K, 101.33 kPa, Vibrating tube method) [kg/m3] | Compound
1 | 1.36115 ± 0.0007 | 78.29 ± 1.1 |  |  | CCO [ethanol]
2 |  | 220.00 ± 1.2 | 1.45445 ± 0.0012 | 895.06 ± 4.4 | C=CC(C)(CCC=C(C)C)OC(C)=O (stereo not given) [linalool acetate]
